Columns and labels:
[1] = test system: inflammation induced in the ear by picryl chloride; test: Picryl chloride-induced ear swelling; assay type: in vivo, BALB/C mice; settings: for overall effect on ear inflammation (ANOVA): 10-80 μg IP, 3 and 6 h
Description: Female BALB/C mice (Simmons Laboratories), 7 weeks old, were housed at 23-25° C. in groups of no more than 5 per cage [28 cm (L)×18 cm (W)×13 cm (H)]. They were allowed to acclimatize to standard lighting and temperature conditions for at least 1 week, with food and water available ad lib, before the experiment began. Five to ten animals were randomly assigned to each treatment group each test day, and all experiments were repeated at least twice to confirm reproducibility. To reduce error due to slight differences in responses to the irritant of animals from different shipments, tests of each agent were performed as separate experiments in which experimental and control animals were drawn from the same shipment.
In the experiments each animal was anesthetized with 1 mg of pentobarbital sodium solution (50 mg/kg, Nembutal, Abbott Laboratories, Abbott park, Ill.). Baseline ear thickness was measured for both ears with a spring-loaded micrometer (Swiss Precision Instruments, Los Angeles, Calif.). Ear thickness was expressed in units of 10^−3 cm; the average thickness of unstimulated ears was approximately 25-30×10^−3 cm. After baseline measurements were taken, one of six solutions was injected IP. Control animals received 0.2 ml of sterile saline, and experimental animals received Ac-α-MSH (11-13)-NH2, i.e., Ac-Lys-Pro-Val-NH2), Ac[D-Lys^11] α-MSH (11-13)-NH2, Ac[D-Pro^12] α-MSH (11-13)-NH2, Ac[D-Val^13] α-MSH (11-13)-NH2 or Ac-[D-Lys^11, D-Val^13] α-MSH (11-13)-NH2 in the same volume of saline. […] The doses of the tripeptides were 10 μg ([…]), 20 μg ([…]), 40 μg (1.04×10^−7 M), and 80 μg (2.08×10^−7 M). Immediately after saline or α-MSH injection, a micropipette was used to coat both sides of each ear with 10 μl (40 μl per mouse) of a 0.5% picryl chloride (Polysciences, Warrington, Pa.) solution in acetone.
Ear thickness was remeasured 3 and 6 h after picryl chloride application. Swelling was determined by subtracting baseline thickness from the measurements for each ear at 3 and 6 h. The differences for both ears were then averaged for the final analysis.
Repeated-measure ANOVA techniques were used to determine if there was an overall difference among group data for each peptide tested in separate experiments. In those cases in which the ANOVA yielded significant results, Dunnett's test was then used to compare the effects of peptide doses with control (saline) data for each of the two time periods, 3 and 6 h.

[2] = test system: edema caused by intradermal injection of human recombinant IL-1β in the mouse ear; test: Ear edema by intradermal recombinant human IL-1β; assay type: in vivo, BALB/c mice; settings: for effect of antagonist on anti-inflammatory effect of centrally administered α-MSH (1-13): antagonist administered intraperitoneally
Description: Female BALB/c mice (Simonsen Laboratories, Gilroy, Calif.), 7-8 weeks old, were housed at 23-25° C. in groups not exceeding five animals per cage [28 cm (L)×18 cm (W)×13 cm (H)]. Before the experiments they were acclimatized for not less than 1 week before experimentation to standard lighting and temperature conditions with food and water freely available.
Mice were anesthetized with 10% pentobarbital sodium solution (1 mg/mouse, 50 mg/ml, Nembutal sodium solution; Abbott Laboratories, North Chicago, Ill.). Baseline ear thickness measurements were taken with a spring-loaded micrometer (Swiss Precision Instruments, Los Angeles, Calif.). Ear thickness was expressed in cubic centimeters and was measured at least twice at each time point. The average thickness of unstimulated ears was […]. Inflammation was induced by intradermal injection of 20 μl of recombinant human IL-1β (1500 U; Genzyme, Cambridge, Mass.) in one ear of each mouse using a 28 gauge needle (Hiltz et al., 1992). Measures of ear thickness were repeated 4 and 6 hr later, while the mice were under sodium pentobarbital anesthesia. Edema was assessed by subtracting baseline measures from 4 and 6 hr readings for each animal. α-MSH (11-13) (1663.9 gm/mol; Peninsula Laboratories, Belmont, Calif.) or α-MSH (11-13) (383.48 gm/mol; Peninsula Laboratories) dissolved in saline was injected intracerebroventricularly (20 μl) using procedures described previously (Lipton et al., 1991; Lipton and Catania, 1993).
Several agents were administered at the time of ear challenge to pharmacologically block certain receptors: atropine (Sigma Chemical Co.; 150 μg i.p.), a muscarinic receptor blocker that acts on autonomic end-organ receptors, was chosen because of links between inflammation and modulation of pain and the finding that muscarinic antagonists increase pain threshold (Hartvig et al., 1989); phentolamine (Sigma; 150 μg i.p.) an agent that competes for occupancy of α-adrenergic receptors; propranolol (Sigma; 150 μg, i.p.; 30 μg, i.c.v.), a nonspecific competitive antagonist for β-adrenergic receptors.
(§1) Because of the size of the experiments and the requirement for several shipments of animals over time, several experiments were performed, each with complete treatment and control groups drawn from the same shipment of mice. Omnibus analysis of variance techniques (Dynastat, Washington, D.C.) were used to test overall differences among group means. Tukey's protected t test was used to compare individual means. Probability values of <0.05 were considered significant.

C. albicans [3] = test: C. albicans colony forming units (candidacidal activity); assay type: cell-based; settings: for relative potency in reducing C. albicans viability: 10^−4M melanocortin peptides; for reduction of C. albicans CFU at higher concentrations: up to 10^−4M
Description: C. albicans (1×10^6/ml in HBSS) was incubated in the presence or absence or α-MSH (1-13) or α-MSH (11-13) at concentrations in the range of 10^−15 M to 10^−6 M for 2 hours at 37° C. Cells were then washed in cold distilled water and diluted with HBSS to a concentration of 100 organisms/ml. One-ml aliquots were dispensed on blood agar plates and incubated for 48 hours at 37° C. Organism viability was estimated from the number of colonies formed. In subsequent experiments using familiar procedures we compared activity of α-MSH (4-10), α-MSH (6-13), α-MSH (11-13), ACTH (1-39), (18-39) and fluconazole, the latter an established antifungal agent. Melanocortin peptides and fluconazole were tested in concentrations of 10^−6 M to 10^−4 M. There were at least six replicates for each concentration of peptide.

C. albicans [4] = test: Horse serum-induced germ tube formation of C. albicans; assay type: cell-based; settings: 10^−6M, 60 minutes at 37° C.
Description: C. albicans from stationary phase cultures were washed twice with distilled water and suspended in HBSS to a final concentration of 2×10^6/ml. Hyphal growth was induced by addition of 10% inactivated horse serum (GIBCO/BRL, Great Britain) to yeast incubated for 45 minutes at 37° C. with continuous shaking. Horse serum was removed by washing cells twice with HBSS and incubation was continued for 60 minutes at 37° C. in the presence of α-MSH (1-13), α-MSH (6-13) or α-MSH (11-13) at a concentration of 10^−6M with continuous shaking. The percentage of filamentous cells was evaluated under a light microscope with the aid of hemocytometer. Experiments were run in triplicate and at least 200 cells were scored. Photomicrographs were taken with an MC100 camera attached to an Axioskop Zeiss microscope.

[5] = test system: inflammation induced in the hind paw; test: Kappa carrageenan-induced hind paw inflammation, spinal cord intact or transected; assay type: in vivo, BALB/c mice; settings: 2.5 mg/mouse IP, mice with spinal transection, 4.5 h after carrageenan
Description: Because surgical dissection of trigeminal structures that innervate the ear of the mouse is very difficult, tests to learn whether descending neural pathways are essential to the anti-inflammatory activity of centrally administered α-MSH peptides were performed in mice with inflammation induced in a hind paw. In these experiments, each animal was anesthetized with pentobarbital sodium solution as above. Baseline footpad thickness of both hind paws was measured with a spring-loaded micrometer (Swiss Precision Instruments, Los Angeles, Calif.). Paw thickness was expressed in units of 10^−3 cm; average thickness of unstimulated paws was 171.5×10^−3 cm across shipments of animals. Kappa carrageenan (Sigma) dissolved in saline (0.05%, 20 μl) was injected (28 gauge allergy test syringe) into one footpad, and saline (20 μl) was injected into the other. For the analyses, the increase in thickness of the control saline-injected paw of each animal was subtracted from that of the carrageenan-injected paw, to eliminate the influence of mechanical injury and volume of the injected fluid. To be certain that mice with severed spinal cords can react to anti-inflammatory agents, prednisolone (2.5 mg/mouse (IP injection)) was administered to 10 mice with spinal transection and inflammation induced by carrageenan. Treatment with the locally acting steroid reduced swelling up to 29% (average, relative to saline controls) at 4.5 h. after carrageenan.
However, a standardized crushing of lumbar vertebrae with a hemostat was effective in severing the cord; no deaths were caused by this treatment. […] The experiments were limited to 4.5 h to reduce problems of bowel and bladder dysfunction. Immediately after the 4.5 h measurements all mice were killed with an overdose of sodium pentobarbital.
as §1

Ac[D-Val^13] α-MSH (11-13)-NH2
% Inhibition of swelling ([1]; 10 μg IP, 3 h): 24% | % Inhibition of swelling ([1]; 10 μg IP, 6 h): 23% | % Inhibition of swelling ([1]; 20 μg IP, 3 h): 48% | % Inhibition of swelling ([1]; 20 μg IP, 6 h): 54% | % Inhibition of swelling ([1]; 40 μg IP, 3 h): 39% | % Inhibition of swelling ([1]; 40 μg IP, 6 h): 45% | % Inhibition of swelling ([1]; 80 μg IP, 3 h): 41% | % Inhibition of swelling ([1]; 80 μg IP, 6 h): 29% | overall effect on ear inflammation (ANOVA) [1]: marked inhibitory influence

Cc1ccc(N(CC2=NCCN2)c2cccc(O)c2)cc1 [phentolamine]
effect of antagonist on anti-inflammatory effect of centrally administered α-MSH (1-13) [2]: did not alter

CC(C)NCC(O)COc1ccc(CC(N)=O)cc1 (centres unmarked) [atenolol]
effect of antagonist on anti-inflammatory effect of centrally administered α-MSH (1-13) [2]: little inhibition

Ac-[D-Lys^11, D-Val^13] α-MSH (11-13)-NH2 [Ac-[D-Lys^11, D-Val^13]α-MSH(11-13)-NH2]
% Inhibition of swelling ([1]; 10 μg IP, 3 h): 22% | % Inhibition of swelling ([1]; 10 μg IP, 6 h): 22% | % Inhibition of swelling ([1]; 20 μg IP, 3 h): 55% | % Inhibition of swelling ([1]; 20 μg IP, 6 h): 46% | % Inhibition of swelling ([1]; 40 μg IP, 3 h): 42% | % Inhibition of swelling ([1]; 40 μg IP, 6 h): 41% | % Inhibition of swelling ([1]; 80 μg IP, 3 h): 40% | % Inhibition of swelling ([1]; 80 μg IP, 6 h): 44% | overall effect on ear inflammation (ANOVA) [1]: significant overall reduction in inflammation

HFRWGKPV (Designed polypeptide with anti-inflammatory, anti-bacterial, anti-fungal and antipyretic properties.) [α-MSH (6-13)]
relative potency in reducing C. albicans viability (C. albicans [3]): the most effective | reduction in the number of filamentous cells (inhibition of germination) (C. albicans [4]): approximately 50%

C[C@]12C=CC(=O)C=C1CC[C@@H]1[C@@H]2[C@@H](O)C[C@@]2(C)[C@H]1CC[C@]2(O)C(=O)CO [prednisolone, reference compound]
reduction of swelling relative to saline controls (average) [5]: up to 29%

MEHFRWG [α-MSH (4-10)]
inhibition of CFU (C. albicans [3]; 10^−4M peptide as printed): approximately 50%

CN1[C@@H]2CC[C@H]1C[C@@H](OC(=O)C(CO)c1ccccc1)C2 (some centres unmarked) [atropine]
effect of antagonist on anti-inflammatory effect of centrally administered α-MSH (1-13) [2]: did not alter

COc1ccc(OC)c(C(O)C(C)NC(C)(C)C)c1 (centres unmarked) [butoxamine]
effect of antagonist on anti-inflammatory effect of centrally administered α-MSH (1-13) [2]: significantly reduced

CC(C)NCC(O)COc1cccc2ccccc12 (centres unmarked) [propranolol]
effect of antagonist on anti-inflammatory effect of centrally administered α-MSH (1-13) [2]: inhibited | effect of antagonist on anti-inflammatory influence of α-MSH (1-13) ([2]; antagonist injected centrally): little effect

ACTH fragment (18-39): ACTH fragment (18-39) (RPVKVYPNGAEDESAEAFPLEF; Corticotropin; UniProt P01189 155-176, looked up, fragment) [reference compound]
relative potency in reducing C. albicans viability (C. albicans [3]): did not reduce C. albicans viability | reduction of C. albicans CFU at higher concentrations (C. albicans [3]): ineffective

ACTH (1-39): adrenocortitrophic hormone peptide (1-39) (SYSMEHFRWGKPVGKKRRPVKVYPNGAEDESAEAFPLEF; Corticotropin; UniProt P01189 138-176, looked up) [reference compound]
relative potency in reducing C. albicans viability (C. albicans [3]): did not reduce C. albicans viability | reduction of C. albicans CFU at higher concentrations (C. albicans [3]): ineffective

Ac-[D-Pro^12]α-MSH (11-13)-NH2
% Inhibition of swelling ([1]; 10 μg IP, 3 h): 4% | % Inhibition of swelling ([1]; 10 μg IP, 6 h): 8% | % Inhibition of swelling ([1]; 20 μg IP, 3 h): 11% | % Inhibition of swelling ([1]; 20 μg IP, 6 h): 5% | % Inhibition of swelling ([1]; 40 μg IP, 3 h): 10% | % Inhibition of swelling ([1]; 40 μg IP, 6 h): 8% | % Inhibition of swelling ([1]; 80 μg IP, 3 h): 8% | % Inhibition of swelling ([1]; 80 μg IP, 6 h): 6% | overall effect on ear inflammation (ANOVA) [1]: no significant effect on inflammation
